`CCCC(CCC)c1nc(-c2ccc(F)cc2)c[nH]1`: the melting point (commonly the temperature, or range, at which the solid turns liquid) was 217.5 °C.

Take `CC(C)Cc1ccc(Cc2nc(-c3ccc(-c4ccccc4)cc3)c[nH]2)cc1` [Example 1, 4-(1,1′-biphenyl-4-yl)-2-(4-isobutylbenzyl)-1H-imidazole]: the melting point fell in the range of 160 to 161 °C.

Turning to `CCCCCCc1nc(-c2ccc(CC(C)C)cc2)c[nH]1` [Example 2, 2-hexyl-4-(4-isobutylphenyl)-1H-imidazole], the melting point was 89 to 90 °C.

`c1ccc(CCCc2nc(-c3ccccc3)c[nH]2)cc1` [Example 3, 4-phenyl-2-(3-phenylpropyl)-1H-imidazole] had a melting point of 106 to 108 °C.

Consider `CCCCCC(CCCCC)c1nc(-c2ccccc2)c[nH]1` [Example 4, 2-(1-pentylhexyl)-4-phenyl-1H-imidazole], for which the melting point was 111.2 °C.

As to `CCCCCC(CCCCC)c1nc(-c2ccc(F)cc2)c[nH]1` [Example 5, 4-(4-fluorophenyl)-2-(1-pentylhexyl)-1H-imidazole], the melting point came to 134.6 °C.

`Fc1ccc(-c2c[nH]c(CC3CCCCC3)n2)cc1` [Example 6, 2-(cyclohexylmethyl)-4-(4-fluorophenyl)1H-imidazole] registered a melting point of 68 to 70 °C.

Molecule `CCCCCC(CCCCC)c1nc(-c2ccc(-c3ccccc3)cc2)c[nH]1` [Example 7, 4-(1,1′-biphenyl-4-yl)-2-(1-pentylhexyl)-1H-imidazole] had a melting point of 173.6 °C.

`CCCC(CCC)c1nc(-c2ccc(C(C)(C)C)cc2)c[nH]1` [Example 8, 4-(4-tert-butylphenyl)-2-(1-propylbutyl)-1H-imidazole]: the melting point was 200 to 202 °C.

Consider `CCCC(CCC)c1nc(-c2ccc(-c3ccc(Br)cc3)cc2)c[nH]1` [Example 10, 4-(4′-bromo-1,1′-biphenyl-4-yl)-2-(1-propylbutyl)-1H-imidazole], for which the melting point was 182.8 °C.

Molecule `c1ccc(-c2ccc(-c3c[nH]c(CCC4CCCCC4)n3)cc2)cc1` [Example 11, 4-(1,1′-biphenyl-4-yl)-2-(2-cyclohexylethyl)-1H-imidazole] displayed a melting point of 104.9 °C.

On to `CCCCCCc1nc(-c2ccc(-c3ccccc3)cc2)c[nH]1` [Example 12, 4-(1,1′-biphenyl-4-yl)-2-hexyl-1H-imidazole], for which the melting point was found to be 104.8 °C.

`CC(C)Cc1ccc(C(C)c2nc(-c3ccc(-c4ccccc4)cc3)c[nH]2)cc1` (stereo not drawn) [Example 13, 4-(1,1′-biphenyl-4-yl)-2-[1-(4-isobutylphenyl)ethyl]-1H-imidazole] came in with a melting point of 172.7 °C.

The molecule `CC(C)Cc1ccc(C(C)c2nc(-c3ccc(F)cc3)c[nH]2)cc1` (stereo not drawn) [Example 14, 4-(4-fluorophenyl)-2-[1-(4-isobutylphenyl)ethyl]-1H-imidazole] registered a melting point of 116 °C.

`CC(c1ccccc1)c1nc(-c2ccc(-c3ccccc3)cc2)c[nH]1` (stereo not drawn) [Example 15, 4-(1,1′-biphenyl-4-yl)-2-(1-phenylethyl)-1H-imidazole] came in with a melting point of 165 to 166 °C.

The molecule `CCCC(CCC)c1nc(-c2ccc(-c3ccccc3)cc2)c[nH]1` [Example 16, 4-(1,1′-biphenyl-4-yl)-2-(1-propylbutyl)-1H-imidazole] yielded a melting point of 197 to 198 °C.

For `c1ccc(-c2ccc(-c3c[nH]c(CC4CCCCC4)n3)cc2)cc1` [Example 17, 4-(1,1′-biphenyl-4-yl)-2-(cyclohexylmethyl)-1H-imidazole], the melting point fell in the range of 104 to 105 °C.

The molecule `c1ccc(-c2ccc(-c3c[nH]c(CCCC4CCCCC4)n3)cc2)cc1` [Example 18, 4-(1,1′-biphenyl-4-yl)-2-(3-cyclohexylpropyl)-1H-imidazole] displayed a melting point of 118 to 119 °C.

The values are drawn from patent US7402602B2 (priority 2001, dated 2008).
